This passage reports IC50 results from BindingDB's records for doi:10.7270/Q2PR7TCX (The Scripps Research Institute Molecular Screening Center, 2007).

Each structure is given as a SMILES string. Where only a bound is given, the exact number is not on record here.

Steroidogenic factor 1, sequence (Q13285 whole entry, the tested form may be a part): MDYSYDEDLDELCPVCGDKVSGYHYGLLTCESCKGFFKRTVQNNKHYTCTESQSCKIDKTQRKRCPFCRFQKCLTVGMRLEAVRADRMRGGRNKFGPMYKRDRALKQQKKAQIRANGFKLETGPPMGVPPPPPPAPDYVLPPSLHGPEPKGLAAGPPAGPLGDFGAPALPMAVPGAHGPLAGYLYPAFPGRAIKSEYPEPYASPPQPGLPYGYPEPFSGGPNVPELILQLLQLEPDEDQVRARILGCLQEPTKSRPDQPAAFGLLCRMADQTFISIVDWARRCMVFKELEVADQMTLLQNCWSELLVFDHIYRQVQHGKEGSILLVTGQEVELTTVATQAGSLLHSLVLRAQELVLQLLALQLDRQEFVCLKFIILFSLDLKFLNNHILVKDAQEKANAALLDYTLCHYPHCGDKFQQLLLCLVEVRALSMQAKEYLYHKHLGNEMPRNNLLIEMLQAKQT

One assay has as its target Steroidogenic factor 1 (Homo sapiens, UniProt Q13285). The experiment in a line: SF-1 inhibitors in Gal4 reporter counter-screen, dose response, counter-screen for RORA inhibitor project, cell-based, CHO-K1, Gal4-SF-1 LBD, luciferase luminescence (AID 611).
Conditions: not given
`COc1cccc(-c2nnc3n2N=C(C(C)(C)C)CS3)c1` [6-tert-butyl-3-(3-methoxyphenyl)-7H-[1,2,4]triazolo[3,4-b][1,3,4]thiadiazine] had an IC50 of 7.59 µM.
Still for that read-out and setting: to `COc1cc(NS(=O)(=O)c2ccc(C)cc2)c2ncccc2c1` [SMR000071147] belongs 5.2 µM; to `Clc1cccc(-c2nc(-c3ccccn3)no2)c1` [2-[5-(3-Chloro-phenyl)-[1,2,4]oxadiazol-3-yl]-pyridine], 5.41 µM; to `CCc1ccc(-c2nc(CSCC(=O)NCCCN3CCCC3=O)c(C)o2)cc1` [2-({[2-(4-ethylphenyl)-5-methyl-1,3-oxazol-4-yl]methyl}thio)-N-[3-(2-oxopyrrolidin-1-yl)propyl]acetamide], 5.56 µM.
`COc1ccc(CCNc2ncnc3c2oc2ccccc23)cc1OC` [MLS000041708] yielded an IC50 of 2.27 µM.
Same read-out and setting: to `COc1ccc(-c2cc3nc4n(c(=O)c3s2)CCOC4)cc1` [2-(4-methoxyphenyl)-7,8-dihydro-5H-thieno[1,2]pyrimido[4,5-a][1,4]oxazin-10-one] belongs 7.8 µM.
On the same count and under the same terms, to `CCOC(=O)CS(=O)(=O)c1nc(-c2ccccc2)cc(C(F)(F)F)n1` [2-[4-phenyl-6-(trifluoromethyl)pyrimidin-2-yl]sulfonylacetic acid ethyl ester] belongs 9.74 µM; to `c1c2c(cc3sc(N4CCCCC4)nc13)OCCO2` [2-(1-piperidinyl)-6,7-dihydro-[1,4]dioxino[2,3-f][1,3]benzothiazole], over 3.67 µM.
On the same count and under the same terms, under `Cc1cc(C)n(-c2ccc3cccc(NS(C)(=O)=O)c3n2)n1` [MLS000062301] stands 4.32 µM; under `COc1cccc(NC(=O)CSc2nnc(-c3cc(C)n(-c4ccccc4)c3C)o2)c1` [2-[[5-(2,5-dimethyl-1-phenyl-3-pyrrolyl)-1,3,4-oxadiazol-2-yl]thio]-N-(3-methoxyphenyl)acetamide], 3.76 µM.
Molecule `c1ccc(CNc2ncnc3ccccc23)cc1` [N-benzylquinazolin-4-amine] displayed an IC50 of 21.9 µM.
The same measure, in the same setting: to `O=C(CC=Nc1ccccn1)c1ccc(Cl)cc1` [(Z)-1-(4-chlorophenyl)-3-(2-pyridinylamino)-2-propen-1-one] belongs 4.88 µM.
The molecule `Cc1cc(-n2c(C)cc(C(=O)CSc3ncnc4ccccc34)c2C)no1` [1-[2,5-dimethyl-1-(5-methyl-1,2-oxazol-3-yl)pyrrol-3-yl]-2-quinazolin-4-ylsulfanyl-ethanone] registered an IC50 of 6.03 µM. This IC50 and that of the molecule before are within 1.5-fold of each other.
For the molecule `Cc1cccc(NC(=O)CSc2nnc(-c3cc(C)n(-c4ccccc4)c3C)o2)c1C` [MLS000036049], half-maximal inhibition (IC50) was put at 3.29 µM.
As to `CCCCCOC(=O)c1[nH]c2c(c1C)C(=O)CC(c1ccco1)C2` (centres undefined) [pentyl 6-(furan-2-yl)-3-methyl-4-oxidanylidene-1,5,6,7-tetrahydroindole-2-carboxylate], half-maximal inhibition (IC50) required 1.87 µM.
Same read-out and setting: to `CCn1c2ccccc2c2cc(NC(=O)CSc3nnnn3-c3ccccc3)ccc21` [MLS000051054] belongs 6.74 µM; to `CN1CCN(C(=O)COc2ccc(-c3nc4ccccc4s3)cc2)CC1` [2-[4-(1,3-benzothiazol-2-yl)phenoxy]-1-(4-methyl-1-piperazinyl)ethanone], 5.28 µM.
Regarding `CCN(C(=O)c1ccc(C(C)(C)C)cc1)c1nnc(Cn2nnc3ccccc32)s1` [MLS000072751], the IC50 was found to be 7.71 µM. The IC50 values of the last two molecules are within 1.5-fold of each other.
Same read-out and setting: to `CCCS(=O)(=O)c1nnnn1-c1cccc(OC)c1` [1-(3-methoxyphenyl)-5-(propylsulfonyl)-1H-tetrazole] belongs 7.63 µM; to `CCOc1ccc(C2=Nn3c(nnc3-c3ccccc3OC)SC2)cc1` [6-(4-ethoxyphenyl)-3-(2-methoxyphenyl)-7H-[1,2,4]triazolo[3,4-b][1,3,4]thiadiazine], 0.39 µM; to `CCOc1ccc(OCc2ccc(C(=O)OCc3ccccn3)o2)cc1` [5-(4-Ethoxy-phenoxymethyl)-furan-2-carboxylic acid pyridin-2-ylmethyl ester], over 11 µM.
On the same count and under the same terms, to `CC(=O)Nc1ccc(SCC(=O)c2cc(C)n(Cc3cccs3)c2C)cc1` [MLS000058142] belongs 4.41 µM; to `COc1cc(CN=O)ccc1OCc1ccc(C(=O)O)cc1` [4-[[4-(hydroximinomethyl)-2-methoxy-phenoxy]methyl]benzoic acid], 0.675 µM; to `Cc1oc(-c2ccc3c(c2)OCCO3)cc1C(=O)O` [5-(2,3-dihydro-1,4-benzodioxin-6-yl)-2-methyl-3-furancarboxylic acid], 3.06 µM.
On the same count and under the same terms, to `COC(=O)/C(=C1/Oc2cc(C)oc(=O)c2S1)C(F)(F)F` [methyl (2E)-3,3,3-tris(fluoranyl)-2-(6-methyl-4-oxidanylidene-[1,3]oxathiolo[4,5-c]pyran-2-ylidene)propanoate] belongs 4.32 µM; to `O=C(CSc1nnc(COc2cccc3cccnc23)o1)N1CCc2ccccc21` [1-(2,3-Dihydro-indol-1-yl)-2-[5-(quinolin-8-yloxymethyl)-[1,3,4]oxadiazol-2-ylsulfanyl]-ethanone], 3.97 µM; to `COc1cccc2sc(Nc3nc(-c4ccccn4)cs3)nc12` [(4-methoxy-1,3-benzothiazol-2-yl)-[4-(2-pyridyl)thiazol-2-yl]amine], 3.89 µM.
Molecule `c1ccc(-c2cn3c4c(sc3n2)CCCC4)cc1` [2-phenyl-5,6,7,8-tetrahydroimidazo[2,1-b][1,3]benzothiazole] came in with an IC50 of 4.27 µM. The IC50 values of the last two molecules are within 1.5-fold of each other.
Same read-out and setting: to `COc1cccc(N2CCN(c3ncnc4c3[nH]c3ccccc34)CC2C)c1` (centres undefined) [4-[4-(3-methoxyphenyl)-3-methyl-1-piperazinyl]-5H-pyrimido[5,4-b]indole] belongs 4.85 µM.
For the molecule `Cc1cccc(-n2ncc3c(N4CCOCC4)ncnc32)c1` [4-[1-(3-methylphenyl)-4-pyrazolo[3,4-d]pyrimidinyl]morpholine], the IC50 was over 3.67 µM.
In turn, `CCCCOc1ncnc2c1[nH]c1ccc(F)cc12` [4-butoxy-8-fluoranyl-5H-pyrimido[5,4-b]indole] displayed an IC50 of 4.2 µM. In other words, the single-digit micromolar range.
Consider `Cc1ccccc1NC(=O)c1cnc2ccccn2c1=O` [4-keto-N-(o-tolyl)pyrido[1,2-a]pyrimidine-3-carboxamide], for which the IC50 is over 11 µM.
On to `O=S(=O)(C/C(=C/CO)S(=O)(=O)c1ccccc1)c1ccccc1` [(Z)-3,4-bis(benzenesulfonyl)but-2-en-1-ol], for which half-maximal inhibition (IC50) required 4.03 µM.
The same measure, in the same setting: under `O=S1(=O)C=C(Sc2nnc(-c3ccccc3)o2)c2ccccc21` stands 6.04 µM; under `Cc1cc(C=c2sc3nc4ccccc4n3c2=O)c(C)n1-c1ccccn1` [2-[(2,5-dimethyl-1-pyridin-2-yl-pyrrol-3-yl)methylidene]-[1,3]thiazolo[3,2-a]benzimidazol-1-one], over 0.00503 µM; under `O=C1c2ccccc2C(=O)C1c1ccc2ccccc2n1`, 4.75 µM.
Turning to `CCN(C1CCCCC1)S(=O)(=O)c1ccc(S(=O)(=O)NCc2ccncc2)cc1` [4-N-cyclohexyl-4-N-ethyl-1-N-(pyridin-4-ylmethyl)benzene-1,4-disulfonamide], inhibition was half-maximal at 9.51 µM (IC50).
For `Cn1nc(CC(=O)Nc2ccc3c(c2)OCCO3)c2ccccc2c1=O` [MLS000047020], the half-inhibitory concentration (IC50) stood at 6.3 µM. This IC50 is about 1.5-fold lower than that of the molecule before.
Still for that read-out and setting: to `O=S1(=O)C=C(Sc2nc3cc(Cl)ccc3o2)c2ccccc21` [SMR000019512] belongs 5.99 µM; to `CCOc1ccc(-c2noc(CCC(=O)O)n2)cc1` [3-(3-p-phenetyl-1,2,4-oxadiazol-5-yl)propionic acid], 8.46 µM.

Staying with this assay, now noted: inactive by the depositor's call.
`Cc1ccc(F)cc1NC(=O)Cc1nn(C)c(=O)c2ccccc12` [MLS000047013] showed an IC50 of 12.2 µM.
The same measure, in the same setting: to `CC1(C)COCN1S(=O)(=O)c1ccc(C(=O)Nc2nnc(-c3ccc(Cl)s3)o2)cc1` [MLS000086346] belongs 12.2 µM; to `Cc1nc2sccn2c1-c1csc(NCc2ccccc2)n1` [4-(6-methyl-5-imidazo[2,1-b]thiazolyl)-N-(phenylmethyl)-2-thiazolamine], 11.1 µM; to `O=C(CSc1nnc(Cn2nnc3ccccc32)o1)N(Cc1ccc(F)cc1)c1ccccc1` [2-(5-Benzotriazol-1-ylmethyl-[1,3,4]oxadiazol-2-ylsulfanyl)-N-(4-fluoro-benzyl)-N-phenyl-acetamide], 11 µM.
The same measure, in the same setting: to `COc1cccc(OC)c1C1=NCC(=O)Nc2c1oc1ccc(Br)cc21` [9-bromanyl-5-(2,6-dimethoxyphenyl)-1,3-dihydro-[1]benzofuro[3,2-e][1,4]diazepin-2-one] belongs 15.4 µM.
`O=C1c2ccccc2S(=O)(=O)N1Cc1nc2ccccc2s1` [2-(1,3-benzothiazol-2-ylmethyl)-1,1-bis(oxidanylidene)-1,2-benzothiazol-3-one] had an IC50 of 10.6 µM.
In turn, `N#C/C(=C/c1ccc(N2CCCCCC2)o1)c1ccc(F)cc1` [MLS000051438] returned an IC50 of 18.5 µM.
On the same count and under the same terms, to `Cc1noc(C)c1S(=O)(=O)Nc1ccc(C(=O)N2CCN(c3ccc(Cl)cc3)CC2)cc1` [MLS000045033] belongs 21.1 µM; to `COc1ccccc1-c1cc(C(F)(F)F)nc(S(=O)(=O)CCCC(=O)Nc2cc(C)on2)n1` [4-[4-(2-methoxyphenyl)-6-(trifluoromethyl)pyrimidin-2-yl]sulfonyl-N-(5-methyl-1,2-oxazol-3-yl)butanamide], 13.2 µM.
